In the NIST ThermoML archive (doi:10.1016/j.tca.2007.07.015):
± gives the expanded uncertainty stated by the source.

Experiment: excess molar enthalpy (molar enthalpy of mixing); xn = mol fraction of the nth substance listed
Details: 973 K, Liquid, Calvet calorimetry

[Pb] [lead] + [Ag]
Details | excess molar enthalpy [kcal/mol]
101.3 kPa, x2 = 0.2 | 0.555 ± 0.0287

[Pb] [lead] + [Au]
101 kPa
Details | excess molar enthalpy [kcal/mol]
x2 = 0.0446 | -0.0574 ± 0.00287
x2 = 0.0465 | -0.0433 ± 0.00215
x2 = 0.0726 | -0.0915 ± 0.00454
x2 = 0.0864 | -0.111 ± 0.00574
x2 = 0.0922 | -0.0825 ± 0.0043
x2 = 0.1272 | -0.151 ± 0.00765
x2 = 0.1358 | -0.127 ± 0.00645
x2 = 0.1368 | -0.154 ± 0.00789
x2 = 0.1653 | -0.174 ± 0.00884
x2 = 0.1768 | -0.159 ± 0.00813
x2 = 0.1938 | -0.189 ± 0.00956
x2 = 0.2 | -0.212 ± 0.0108
x2 = 0.2003 | -0.202 ± 0.0103
x2 = 0.2148 | -0.187 ± 0.00956
x2 = 0.2333 | -0.209 ± 0.0105
x2 = 0.2482 | -0.212 ± 0.0108
x2 = 0.2506 | -0.204 ± 0.0103
x2 = 0.2652 | -0.228 ± 0.0115
x2 = 0.2841 | -0.22 ± 0.0112
x2 = 0.2962 | -0.24 ± 0.0122
x2 = 0.2966 | -0.228 ± 0.0115
x2 = 0.3161 | -0.222 ± 0.0112
x2 = 0.3226 | -0.244 ± 0.0124
x2 = 0.3436 | -0.235 ± 0.012
x2 = 0.3455 | -0.232 ± 0.0117
x2 = 0.3733 | -0.235 ± 0.012
x2 = 0.3862 | -0.239 ± 0.0122
x2 = 0.4 | -0.257 ± 0.0129
x2 = 0.402 | -0.241 ± 0.0122
x2 = 0.4248 | -0.241 ± 0.0122
x2 = 0.4294 | -0.248 ± 0.0127
x2 = 0.4416 | -0.249 ± 0.0127
